# According to patent US20220288057A1, “CONJOINT THERAPY FOR TREATING SEIZURE DISORDERS” (XENON PHARMACEUTICALS INC., priority 2021, published 2022):
# Where two headings read alike, the source gives them in different places.
# How the values were obtained:
# [1] = Clinical observations / behavioral signs in AC-MES studies; type: in vivo, mouse; conditions: male, CF-1, mouse, in vivo, read-out: plasma concentration of individual mouse showing behavioral signs (tremors, decreased activity, splayed hindlimbs)
# How it was run: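 Male CF-1 mice received the test compound by oral gavage at 1–10 mg/kg. Thirty minutes later they were given a 60 Hz, 40 mA, 0.2 s corneal stimulus. At testing, a qualitative observational neurological assessment recorded any departures from normal behaviour as a tolerability screen.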
# [2] = Plasma and brain concentrations in 6 Hz studies (LC-MS/MS); type: in vivo, mouse
# Procedure: Sample Collection and Preparation: Mice were anesthetized by isoflurane inhalation (TECH-018) until they reached a surgical plane of anesthesia. Then a syringe (1 mL syringe with a 22 gauge needle) was inserted under the sternum into the heart (TECH-031). Approximately 0.5 mL of blood was collected, deposited into a K2EDTA tube, and stored on ice. Animals were then euthanized by cervical dislocation (TECH-018). Brains were removed, placed into a pre-weighed vial, and snap frozen on dry ice. At the end of the sample collection, blood was centrifuged at 4000 rpm for 10 minutes at 4° C., and the plasma pipetted into a labeled tube. All samples were stored in a −80° C. freezer until bioanalysis (8 days after sample collection for Studies 3A and 3B; 20 days after sample collection for Study 3C).
# Plasma and Tissue Sample Analysis: Bead mill polypropylene tubes containing weighed brain tissues were thawed at room temperature and 3 mL of homogenization solvent (water:acetonitrile (1:1, v:v)) was added. The tubes were placed in the Bead Mill Homogenizer (Bead Ruptor Elite Model, Omni International) and shaken at a velocity of 3.70 m/s for a single cycle lasting 30 seconds. The homogenized tube was centrifuged at 4000 rpm for 20 minutes, the supernatant was transferred to a 1.5 mL Eppendorf tube, and stored frozen at −80° C. until analysis. All samples including plasma and brain homogenate extracts (including calibration and quality control (QC) samples prepared in K2EDTA rat plasma), were extracted by protein precipitation. […] The samples in the 1.5 mL tubes were vortex mixed and then centrifuged for 20 minutes at 13,000 rpm. Fifty microliters of the supernatant was mixed with 150 μL of water/acetonitrile (1:1) in a 96 well plate which was centrifuged post mixing for 20 minutes at 4000 rpm, and was then ready for analysis by liquid chromatography tandem mass spectrometry (LC-MS/MS).
# Samples were analyzed by a research-grade LC-MS/MS method as follows: […]
smiles,measurement,setting,value
"Cc1cc(N2CCc3cc(F)ccc3C2)cc(C)c1NC(=O)CC(C)(C)C [Compound A, N-[4-(6-fluoro-3,4-dihydro-1H-isoquinolin-2-yl)-2,6-dimethylphenyl]-3,3-dimethylbutanamide]",concentration at 30 min,"[1]; 7.5 mg/kg, Study 2B, Compound A 7.5 mg/kg group",746 nM
same,concentration at 30 min,"[1]; 7.5 mg/kg, Study 4B, Compound A 7.5 mg/kg group",750 nM
same,concentration at 30 min,"[1]; 10 mg/kg, Study 2A, Compound A 10 mg/kg group",391 nM
same,concentration at 30 min,"[1]; 10 mg/kg, Study 4A, Compound A 10 mg/kg group",390 nM
same,concentration at 30 min,"[1]; Study 2B, Compound A 10 mg/kg group, two mice",608 nM
same,fold higher brain concentration of Compound A in Study 3C compared to Study 3B,[2]; 1 hour post dosing,11 fold
same,fold higher plasma concentration of Compound A in Study 3C compared to Study 3B,[2]; 1 hour post dosing,12 fold
same,concentration at 1 h,"[2]; CF-1, mouse, brain, po, 1 mg/kg, Study 3A, Compound A 1 mg/kg PO, 1 h, read-out: Brain",90 nM
same,concentration at 1 h,"[2]; CF-1, mouse, brain, po, 3 mg/kg, Study 3A, Compound A 3 mg/kg PO, 1 h, read-out: Brain",260 nM
same,concentration at 1 h,"[2]; CF-1, mouse, brain, po, 4 mg/kg, Study 3B, Compound A 4 mg/kg PO 1 h alone, read-out: Brain",30 ± 20 nM
same,concentration at 1 h,"[2]; CF-1, mouse, brain, po, 4 mg/kg, Study 3C, Compound A 4 mg/kg PO 1 h alone, read-out: Brain",410 ± 230 nM
same,concentration at 1 h,"[2]; CF-1, mouse, brain, po, 5 mg/kg, Study 3A, Compound A 5 mg/kg PO, 1 h, read-out: Brain",290 nM
same,concentration at 1 h,"[2]; CF-1, mouse, brain, po, 8 mg/kg, Study 3A, Compound A 8 mg/kg PO, 1 h, read-out: Brain",700 ± 410 nM
same,concentration at 1 h,"[2]; CF-1, mouse, plasma, po, 1 mg/kg, Study 3A, Compound A 1 mg/kg PO, 1 h, read-out: Plasma",40 nM
same,concentration at 1 h,"[2]; CF-1, mouse, plasma, po, 3 mg/kg, Study 3A, Compound A 3 mg/kg PO, 1 h, read-out: Plasma",150 nM
same,concentration at 1 h,"[2]; CF-1, mouse, plasma, po, 4 mg/kg, Study 3B, Compound A 4 mg/kg PO 1 h alone, read-out: Plasma",14 ± 9 nM
same,concentration at 1 h,"[2]; CF-1, mouse, plasma, po, 4 mg/kg, Study 3C, Compound A 4 mg/kg PO 1 h alone, read-out: Plasma",167 ± 89.7 nM
same,concentration at 1 h,"[2]; CF-1, mouse, plasma, po, 5 mg/kg, Study 3A, Compound A 5 mg/kg PO, 1 h, read-out: Plasma",180 nM
same,concentration at 1 h,"[2]; CF-1, mouse, plasma, po, 8 mg/kg, Study 3A, Compound A 8 mg/kg PO, 1 h, read-out: Plasma",470 ± 290 nM
same,fold higher concentrations of Compound A in plasma and brain in Study 3C than in Study 3B,"[2]; Compound A 4 mg/kg PO, 1 h",more than 10 fold
same,Plasma,"[2]; Study 3A, Compound A 8 mg/kg PO, 1 h, 8 mg/kg",0.47 µM
same,concentration at 1 h,"[2]; Study 3A, Compound A 8 mg/kg PO, 1 h, 8 mg/kg, read-out: Brain",700 nM
same,Plasma,"[2]; Study 3B, Compound A 4 mg/kg PO 1 h alone, 4 mg/kg",0.01 ± 0.01 µM
same,Plasma,"[2]; Study 3B, Compound A 4 mg/kg PO 1 h alone, listed as Cmpd A, 4 mg/kg",0.01 µM
same,concentration at 1 h,"[2]; Study 3B, Compound A 4 mg/kg PO 1 h alone, listed as Cmpd A, 4 mg/kg, read-out: Brain",30 nM
same,Plasma,"[2]; Study 3C, Compound A 4 mg/kg PO 1 h alone, 4 mg/kg",0.17 µM
same,concentration at 1 h,"[2]; Study 3C, Compound A 4 mg/kg PO 1 h alone, 4 mg/kg, read-out: Brain",410 nM
same,concentration at 1 h,"[2]; mouse, brain, oral, Studies 3B+3C combined, analyte Compound A, 4 mg/kg PO + Levetiracetam 300 mg/kg IP, read-out: Brain",210 nM
same,concentration at 1 h,"[2]; mouse, brain, oral, Study 3B, analyte Compound A, 4 mg/kg PO + Levetiracetam 300 mg/kg IP, read-out: Brain",40 nM
same,concentration at 1 h,"[2]; mouse, brain, oral, Study 3C, analyte Compound A, 4 mg/kg PO + Levetiracetam 300 mg/kg IP, read-out: Brain",383 nM
same,concentration at 1 h,"[2]; mouse, brain, po, 4 mg/kg, Studies 3B+3C combined, Compound A 4 mg/kg PO 1 h alone, read-out: Brain",220 nM
same,concentration at 1 h,"[2]; mouse, brain, po, 4 mg/kg, Study 3B, Compound A 4 mg/kg PO 1 h alone, read-out: Brain",30 ± 20 nM
same,concentration at 1 h,"[2]; mouse, brain, po, 4 mg/kg, Study 3C, Compound A 4 mg/kg PO 1 h alone, read-out: Brain",410 ± 230 nM
same,concentration at 1 h,"[2]; mouse, plasma, oral, Studies 3B+3C combined, analyte Compound A, 4 mg/kg PO + Levetiracetam 300 mg/kg IP, read-out: Plasma",90 nM
same,concentration at 1 h,"[2]; mouse, plasma, oral, Study 3B, analyte Compound A, 4 mg/kg PO + Levetiracetam 300 mg/kg IP, read-out: Plasma",20 nM
same,concentration at 1 h,"[2]; mouse, plasma, oral, Study 3C, analyte Compound A, 4 mg/kg PO + Levetiracetam 300 mg/kg IP, read-out: Plasma",170 nM
same,concentration at 1 h,"[2]; mouse, plasma, po, 4 mg/kg, Studies 3B+3C combined, Compound A 4 mg/kg PO 1 h alone, read-out: Plasma",100 nM
same,concentration at 1 h,"[2]; mouse, plasma, po, 4 mg/kg, Study 3B, Compound A 4 mg/kg PO 1 h alone, read-out: Plasma",14 ± 9 nM
same,concentration at 1 h,"[2]; mouse, plasma, po, 4 mg/kg, Study 3C, Compound A 4 mg/kg PO 1 h alone, read-out: Plasma",170 ± 90 nM
